Experimental data taken from PubChem BioAssay AID256 (DTP/NCI, 2004).
Values joined by “and” are separate entries in the source; they are usually repeats but may differ in a detail not shown here. Identical values can stand only once. Inconclusive results and toxic doses are left out.

Tested on: CD2F1 mice, L1210 leukemia ip, survival T/C
Assay: NCI In Vivo Anticancer Drug Screen. Data for tumor model L1210 Leukemia (intraperitoneal) in CD2F1 (CDF1) mice
Conditions: higher = longer survival
How it was run: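 In this screen, transplantable tumors were grown in mice given either the compound or its vehicle. Results were expressed as the treated measurement relative to the control measurement.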

With `O=C1NC(=O)C2C3C=CC(C12)C1C2C(=O)NC(=O)C2C31` (stereo not drawn) the T/C (endpoint: mean survival time, dose: 12.5 mg/kg/injection, schedule: Q01DX009 (ip), vehicle: saline with Tween-80) was 115 % of control, the T/C (endpoint: mean survival time, dose: 12.5 mg/kg/injection, schedule: Q01DX009 (oral), vehicle: saline with Tween-80) was 100 % of control and the T/C (endpoint: mean survival time, dose: 25.0 mg/kg/injection, schedule: Q01DX009 (oral), vehicle: saline with Tween-80) was 96 % of control. For the same molecule, the T/C (endpoint: mean survival time, dose: 50.0 mg/kg/injection, schedule: Q01DX009 (ip), vehicle: saline with Tween-80) was 164 % of control, the T/C (endpoint: mean survival time, dose: 50.0 mg/kg/injection, schedule: Q01DX009 (oral), vehicle: saline with Tween-80) was 101 % of control and the T/C (endpoint: mean survival time, dose: 100.0 mg/kg/injection, schedule: Q01DX009 (ip), vehicle: saline with Tween-80) was 188 % of control. For the same molecule, the T/C (endpoint: mean survival time, dose: 100.0 mg/kg/injection, schedule: Q01DX009 (oral), vehicle: saline with Tween-80) was 104 % of control, the T/C (endpoint: mean survival time, dose: 200.0 mg/kg/injection, schedule: Q01DX009 (oral), vehicle: saline with Tween-80) was 101 % of control and the T/C (endpoint: mean survival time, dose: 400.0 mg/kg/injection, schedule: Q01DX009 (oral), vehicle: saline with Tween-80) was 111 % of control. The T/C (endpoint: median survival time, dose: 2.6 mg/kg/injection, schedule: Q03HX024 (ip), vehicle: clinical formulation) was 110 % of control, the T/C (endpoint: median survival time, dose: 3.12 mg/kg/injection, schedule: Q01DX009 (ip), vehicle: clinical formulation) was 106 % of control and the T/C (endpoint: median survival time, dose: 3.12 mg/kg/injection, schedule: Q01DX009 (ip), vehicle: saline with Tween-80) was 108 % of control. For the same molecule, the T/C (endpoint: median survival time, dose: 6.0 mg/kg/injection, schedule: Q03HX027 (ip), vehicle: saline) was 112 % of control, the T/C (endpoint: median survival time, dose: 6.25 mg/kg/injection, schedule: Q01DX009 (ip), vehicle: clinical formulation) was 108 % of control and the T/C (endpoint: median survival time, dose: 6.9 mg/kg/injection, schedule: Q01DX009 (ip), vehicle: clinical formulation) was 102 % of control. The T/C (endpoint: median survival time, dose: 7.8 mg/kg/injection, schedule: Q03HX008 (ip), vehicle: clinical formulation) was 162 % of control, the T/C (endpoint: median survival time, dose: 10.4 mg/kg/injection, schedule: Q03HX024 (ip), vehicle: clinical formulation) was 162 % of control and the T/C (endpoint: median survival time, dose: 11.8 mg/kg/injection, schedule: Q01DX009 (ip), vehicle: water) was 108 % of control. For the same molecule, the T/C (endpoint: median survival time, dose: 12.5 mg/kg/injection, schedule: Q01DX005 (ip), vehicle: clinical formulation) was 100 % of control, the T/C (endpoint: median survival time, dose: 12.5 mg/kg/injection, schedule: Q01DX005 (ip), vehicle: other) was 101 % of control and 106 % of control and the T/C (endpoint: median survival time, dose: 12.5 mg/kg/injection, schedule: Q01DX005 (iv), vehicle: clinical formulation) was 108 % of control. For the same molecule, the T/C (endpoint: median survival time, dose: 12.5 mg/kg/injection, schedule: Q01DX005 (iv), vehicle: other) was 103 % of control and 104 % of control, the T/C (endpoint: median survival time, dose: 12.5 mg/kg/injection, schedule: Q01DX009 (ip), vehicle: clinical formulation) was 112 % of control and the T/C (endpoint: median survival time, dose: 12.5 mg/kg/injection, schedule: Q01DX009 (ip), vehicle: saline with Tween-80) was 116 % of control. For the same molecule, the T/C (endpoint: median survival time, dose: 12.5 mg/kg/injection, schedule: Q01DX009 (oral), vehicle: other) was 100 % of control, the T/C (endpoint: median survival time, dose: 13.8 mg/kg/injection, schedule: Q01DX009 (ip), vehicle: clinical formulation) was 101 % of control and the T/C (endpoint: median survival time, dose: 14.0 mg/kg/injection, schedule: Q01DX009 (ip), vehicle: water) was 117 % of control. The T/C (endpoint: median survival time, dose: 16.7 mg/kg/injection, schedule: Q03HX027 (ip), vehicle: saline) was 152 % of control, the T/C (endpoint: median survival time, dose: 18.0 mg/kg/injection, schedule: Q01DX009 (ip), vehicle: clinical formulation) was 110 % of control and the T/C (endpoint: median survival time, dose: 18.0 mg/kg/injection, schedule: Q01DX009 (ip), vehicle: saline) was 103 % of control. The T/C (endpoint: median survival time, dose: 18.0 mg/kg/injection, schedule: Q01DX009 (ip), vehicle: water) was 113 % of control, the T/C (endpoint: median survival time, dose: 19.7 mg/kg/injection, schedule: Q01DX009 (ip), vehicle: water) was 107 % of control and the T/C (endpoint: median survival time, dose: 20.8 mg/kg/injection, schedule: Q03HX024 (ip), vehicle: clinical formulation) was 114 % of control. The T/C (endpoint: median survival time, dose: 20.8 mg/kg/injection, schedule: Q04DX003 (ip), vehicle: clinical formulation) was 121 % of control, the T/C (endpoint: median survival time, dose: 23.3 mg/kg/injection, schedule: Q01DX009 (ip), vehicle: water) was 150 % of control and the T/C (endpoint: median survival time, dose: 25.0 mg/kg/injection, schedule: Q01DX001 (iv), vehicle: other) was 100 % of control. For the same molecule, the T/C (endpoint: median survival time, dose: 25.0 mg/kg/injection, schedule: Q01DX005 (ip), vehicle: clinical formulation) was 114 % of control, the T/C (endpoint: median survival time, dose: 25.0 mg/kg/injection, schedule: Q01DX005 (ip), vehicle: other) was 108 % of control and the T/C (endpoint: median survival time, dose: 25.0 mg/kg/injection, schedule: Q01DX005 (iv), vehicle: other) was 101 % of control and 109 % of control. The T/C (endpoint: median survival time, dose: 25.0 mg/kg/injection, schedule: Q01DX005 (oral), vehicle: other) was 98 % of control, the T/C (endpoint: median survival time, dose: 25.0 mg/kg/injection, schedule: Q01DX009 (ip), vehicle: clinical formulation) was 122 % of control and the T/C (endpoint: median survival time, dose: 25.0 mg/kg/injection, schedule: Q01DX009 (oral), vehicle: other) was 98 % of control. For the same molecule, the T/C (endpoint: median survival time, dose: 27.7 mg/kg/injection, schedule: Q01DX009 (ip), vehicle: clinical formulation) was 154 % of control, the T/C (endpoint: median survival time, dose: 27.8 mg/kg/injection, schedule: Q03HX027 (ip), vehicle: saline) was 183 % of control and the T/C (endpoint: median survival time, dose: 30.0 mg/kg/injection, schedule: Q01DX009 (ip), vehicle: clinical formulation) was 166 % of control. For the same molecule, the T/C (endpoint: median survival time, dose: 30.0 mg/kg/injection, schedule: Q01DX009 (ip), vehicle: water) was 186 % of control, the T/C (endpoint: median survival time, dose: 32.9 mg/kg/injection, schedule: Q01DX009 (ip), vehicle: water) was 226 % of control and the T/C (endpoint: median survival time, dose: 38.9 mg/kg/injection, schedule: Q01DX009 (ip), vehicle: water) was 200 % of control. The T/C (endpoint: median survival time, dose: 46.3 mg/kg/injection, schedule: Q03HX027 (ip), vehicle: saline) was 88 % of control, the T/C (endpoint: median survival time, dose: 50.0 mg/kg/injection, schedule: Q01DX001 (iv), vehicle: other) was 106 % of control and the T/C (endpoint: median survival time, dose: 50.0 mg/kg/injection, schedule: Q01DX001 (oral), vehicle: other) was 100 % of control. For the same molecule, the T/C (endpoint: median survival time, dose: 50.0 mg/kg/injection, schedule: Q01DX005 (ip), vehicle: clinical formulation) was 198 % of control, the T/C (endpoint: median survival time, dose: 50.0 mg/kg/injection, schedule: Q01DX005 (iv), vehicle: clinical formulation) was 174 % of control and the T/C (endpoint: median survival time, dose: 50.0 mg/kg/injection, schedule: Q01DX005 (iv), vehicle: other) was 185 % of control. The T/C (endpoint: median survival time, dose: 50.0 mg/kg/injection, schedule: Q01DX005 (oral), vehicle: other) was 101 % of control, the T/C (endpoint: median survival time, dose: 50.0 mg/kg/injection, schedule: Q01DX009 (ip), vehicle: clinical formulation) was 176 % of control and 203 % of control and the T/C (endpoint: median survival time, dose: 50.0 mg/kg/injection, schedule: Q01DX009 (ip), vehicle: saline with Tween-80) was 246 % of control. For the same molecule, the T/C (endpoint: median survival time, dose: 50.0 mg/kg/injection, schedule: Q01DX009 (ip), vehicle: saline) was 160 % of control, the T/C (endpoint: median survival time, dose: 50.0 mg/kg/injection, schedule: Q01DX009 (ip), vehicle: water) was 256 % of control and the T/C (endpoint: median survival time, dose: 50.0 mg/kg/injection, schedule: Q01DX009 (oral), vehicle: other) was 109 % of control. The T/C (endpoint: median survival time, dose: 54.8 mg/kg/injection, schedule: Q01DX009 (ip), vehicle: water) was 119 % of control, the T/C (endpoint: median survival time, dose: 55.5 mg/kg/injection, schedule: Q01DX009 (ip), vehicle: clinical formulation) was 284 % of control and the T/C (endpoint: median survival time, dose: 55.5 mg/kg/injection, schedule: Q01DX009 (oral), vehicle: clinical formulation) was 108 % of control. For the same molecule, the T/C (endpoint: median survival time, dose: 62.5 mg/kg/injection, schedule: Q01DX001 (iv), vehicle: clinical formulation) was 151 % of control, the T/C (endpoint: median survival time, dose: 64.8 mg/kg/injection, schedule: Q01DX009 (ip), vehicle: water) was 268 % of control and the T/C (endpoint: median survival time, dose: 83.3 mg/kg/injection, schedule: Q01DX009 (ip), vehicle: clinical formulation) was 112 % of control. The T/C (endpoint: median survival time, dose: 83.3 mg/kg/injection, schedule: Q01DX009 (ip), vehicle: saline) was 106 % of control, the T/C (endpoint: median survival time, dose: 83.3 mg/kg/injection, schedule: Q01DX009 (ip), vehicle: water) was 97 % of control and the T/C (endpoint: median survival time, dose: 83.3 mg/kg/injection, schedule: Q04DX003 (ip), vehicle: clinical formulation) was 182 % of control. The T/C (endpoint: median survival time, dose: 100.0 mg/kg/injection, schedule: Q01DX001 (iv), vehicle: other) was 104 % of control, the T/C (endpoint: median survival time, dose: 100.0 mg/kg/injection, schedule: Q01DX001 (oral), vehicle: other) was 98 % of control and the T/C (endpoint: median survival time, dose: 100.0 mg/kg/injection, schedule: Q01DX005 (iv), vehicle: other) was 150 % of control and 195 % of control. The T/C (endpoint: median survival time, dose: 100.0 mg/kg/injection, schedule: Q01DX005 (oral), vehicle: other) was 100 % of control, the T/C (endpoint: median survival time, dose: 100.0 mg/kg/injection, schedule: Q01DX009 (oral), vehicle: other) was 114 % of control and the T/C (endpoint: median survival time, dose: 111.1 mg/kg/injection, schedule: Q01DX009 (ip), vehicle: clinical formulation) was 93 % of control. The T/C (endpoint: median survival time, dose: 111.1 mg/kg/injection, schedule: Q01DX009 (oral), vehicle: clinical formulation) was 121 % of control, the T/C (endpoint: median survival time, dose: 125.0 mg/kg/injection, schedule: Q01DX001 (ip), vehicle: clinical formulation) was 170 % of control and the T/C (endpoint: median survival time, dose: 200.0 mg/kg/injection, schedule: Q01DX001 (iv), vehicle: other) was 104 % of control. The T/C (endpoint: median survival time, dose: 200.0 mg/kg/injection, schedule: Q01DX001 (oral), vehicle: other) was 98 % of control, the T/C (endpoint: median survival time, dose: 200.0 mg/kg/injection, schedule: Q01DX005 (ip), vehicle: other) was 109 % of control and the T/C (endpoint: median survival time, dose: 200.0 mg/kg/injection, schedule: Q01DX005 (iv), vehicle: other) was 158 % of control. For the same molecule, the T/C (endpoint: median survival time, dose: 200.0 mg/kg/injection, schedule: Q01DX005 (oral), vehicle: other) was 110 % of control, the T/C (endpoint: median survival time, dose: 400.0 mg/kg/injection, schedule: Q01DX001 (iv), vehicle: other) was 101 % of control and the T/C (endpoint: median survival time, dose: 400.0 mg/kg/injection, schedule: Q01DX001 (oral), vehicle: other) was 98 % of control. For the same molecule, the T/C (endpoint: median survival time, dose: 400.0 mg/kg/injection, schedule: Q01DX005 (oral), vehicle: other) was 112 % of control, the T/C (endpoint: median survival time, dose: 444.4 mg/kg/injection, schedule: Q01DX009 (oral), vehicle: clinical formulation) was 158 % of control and the T/C (endpoint: median survival time, dose: 800.0 mg/kg/injection, schedule: Q01DX001 (oral), vehicle: other) was 102 % of control. For the same molecule, the T/C (endpoint: median survival time, dose: 888.8 mg/kg/injection, schedule: Q01DX009 (oral), vehicle: clinical formulation) was 184 % of control.
